Data: article PMC4128046, “Effect of a toggle switch mutation in TM6 of the human adenosine A3 receptor on Gi protein-dependent signalling and Gi-independent receptor internalization” (British Journal of Pharmacology, 2014)
Positions count from the first letter of the chain named. Like-named read-outs stand apart in the source and are kept apart here.

How the values were obtained:
Assay type in all cases: cell-based
[1] = target: T1, human A3 receptor fused to YFP (A3-YFP) (Homo sapiens, UniProt P0DMS8); assay: Automated imaging of receptor internalization (granularity analysis), A3-YFP; settings: for Maximal internalization (%): percentage of internalization with 10 μM NECA in the cell line
T1 construct: cDNA encoding the full length human A3 receptor; expressed in transfected cells
T1 sequence (P0DMS8 1-318): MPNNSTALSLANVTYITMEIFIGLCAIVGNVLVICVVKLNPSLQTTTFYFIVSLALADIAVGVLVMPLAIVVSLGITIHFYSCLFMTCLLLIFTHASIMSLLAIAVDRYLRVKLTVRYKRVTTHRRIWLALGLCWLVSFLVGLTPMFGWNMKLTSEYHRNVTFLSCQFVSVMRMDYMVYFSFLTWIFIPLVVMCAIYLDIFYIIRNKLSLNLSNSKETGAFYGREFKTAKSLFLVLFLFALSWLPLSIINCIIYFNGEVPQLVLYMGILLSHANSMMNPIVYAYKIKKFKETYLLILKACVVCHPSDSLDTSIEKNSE
Text: Immediately before experimentation, normal growth medium was replaced with serum-free medium. […] Medium was removed and cells were washed once in PBS. […] Images were obtained using an ImageXpress Ultra confocal plate reader (Molecular Devices, Sunnyvale, CA, USA). Four central images were obtained per well using a Plan Fluor 40x NA0.6 extra-long working distance objective. BiFC and YFP images were obtained by excitation with a 488 nm laser line with emission collected through a 525-550 nm band pass filter and H33342 images obtained by excitation with a 405 nm laser line and emission collected through a 447-460 nm band pass filter. Granularity analysis was performed on the resulting images using a granularity algorithm within MetaXpress software (Molecular Devices, Sunnyvale, CA, USA) and intensity above background was set for each individual experiment (Kilpatrick et al., [2010]). Areas of internalized receptors were identified by granularity analysis; granules were defined as having a diameter of between 7 and 15 μm and nuclei as having a diameter of between 6 and 9 μm, resulting in a measurement of the granule count per cell for each image. A basal and FSK control was included in each separate concentration-response CRE-SPAP gene transcription assay and cAMP accumulation assay to allow the responses in each cell line to be expressed as an inhibition of FSK-stimulated SPAP production. […] All data were fitted using non-linear regression in Prism 5 (GraphPad Software, San Diego, CA, USA). […] Statistical significance was determined by Student's unpaired t-test or by one-way ANOVA with Dunnett's post hoc analysis and P < 0.05 was considered statistically significant.

A3 W243F-YFP [2] = target: T2, A3 W243F-YFP (Homo sapiens, UniProt P0DMS8, W243F); assay: CRE-SPAP gene transcription assay, A3 W243F-YFP; settings: A3 W243F-YFP cells
T2 construct: Full length A3 W243F-YFP was excised and subcloned into a native pcDNA3.1 vector; expressed in transfected cells
T2 sequence (P0DMS8 1-318 W243F): T1 sequence (P0DMS8 1-318) with W243F
Description: One day before analysis, normal growth medium was removed from the cells and replaced with serum-free medium (DMEM/F12 containing 2 mM L-glutamine). Where applicable, PTx (100 ng·mL^−1) was added at this stage. On the day of the assay, the medium was removed and replaced with fresh serum-free medium containing the required concentration of the agonist, and cells were incubated for 1 h at 37°C/5% CO2. After 1 h, the required concentration of forskolin (FSK) was added, and cells were incubated for a further 5 h at 37°C/5% CO2. Following the 5 h incubation, all medium was removed from the cells, 40 μL of fresh serum-free medium was added to each well and cells incubated for a further 1 h at 37°C/5% CO2. The plates were then incubated at 65°C for 30 min, to destroy any endogenous alkaline phosphatases. Plates were cooled to room temperature and 100 μL of 5 mM 4-nitrophenyl phosphate in diethanolamine-containing buffer [10% (v v^−1) diethanolamine, 280 mM NaCl, 500 μM MgCl2, pH 9.85] was added to each well; the plates were then incubated at 37°C for 25 min. The absorbance at 405 nm was measured using a Dynex MRX plate reader (Chelmsford, MA, USA).
A basal and FSK control was included in each separate concentration-response CRE-SPAP gene transcription assay and cAMP accumulation assay to allow the responses in each cell line to be expressed as an inhibition of FSK-stimulated SPAP production.

A3 W243F-YFP [3] = target: T2, A3 W243F-YFP; assay: Confocal imaging of receptor internalization and membrane YFP fluorescence, A3 W243F-YFP; settings: A3 W243F-YFP cells, 10 μM agonist
Description: Live-cell BiFC imaging was performed on A3-vYc/β-arrestin2-vYnL and A3 W243F-vYc/β-arrestin2-vYnL cells grown in Nunc Labtek 8-well plates, and images obtained using a Zeiss 710 confocal microscope (Carl Zeiss GmbH, Jena, Germany) fitted with a 63× plan-Apochromat NA1.4 Ph3 oil-immersion objective. Live-cell imaging analysis was performed on A3-YFP or A3 W243F-YFP CRE-SPAP cells and transiently expressed SNAP-A3 or SNAP-A3 W243F grown in Nunc Labtek 8-well plates, and images obtained using a Zeiss LSM5 Exciter confocal microscope (Carl Zeiss GmbH) fitted with a 63× plan-Apochromat NA1.4 DIC oil-immersion objective. For both YFP, BiFC and BG-AF488 label, a 488 nm argon laser was used to excite the fluorophore and emission was detected using a BP505-530 filter. Cells expressing the SNAP-tagged receptors were labelled with 1 μM SNAP-surface BG-AF488 (New England Biolabs) in DMEM/F12 medium for 30 min at 37°C/5% CO2. Before all imaging experiments, normal growth medium or medium containing BG-AF488 was removed and cells were washed twice in HEPES-buffered saline solution (HBSS; 25 mM HEPES, 10 mM glucose, 146 mM NaCl, 5 mM KCl, 1 mM MgSO4, 2 mM sodium pyruvate, 1.3 mM CaCl2) and fresh HBSS was added for analysis. […] Images of A3-YFP and A3 W243F-YFP cells were taken with same pinhole diameter, laser power, gain and offset to allow comparison of YFP fluorescence. To obtain fluorescence intensity values, a region of interest was drawn around the plasma membrane of 10 cells per image in Zeiss AIM 4.2 software (Carl Zeiss GmbH).

Row | EC50 ([1]; A3-YFP CHO CRE-SPAP cells, 45 min, granule count per cell, read-out: pEC50 (internalization) (converted)) | EC50 ([1]; A3-YFP cells, PTx 100 ng·mL−1 overnight, read-out: pEC50 (internalization) in the presence of PTx (converted)) | decrease in the maximal levels of internalization in the presence of PTx ([1]; A3-YFP cells, PTx pretreatment, reduction vs. 10 μM NECA internalization) | Maximum response (% inhibition of 10 μM FSK), CRE-SPAP assay (A3 W243F-YFP [2]) | maximum inhibition of SPAP production in response to 3 μM FSK (A3 W243F-YFP [2]; 5 h stimulation, 3 μM FSK) | reduction in membrane fluorescence (A3 W243F-YFP [3]) | Compound | Maximal internalization (%) ([1]; A3-YFP cells) | internalization of the receptor seen in confocal images (A3 W243F-YFP [3]) | agonist-mediated inhibition of SPAP production after PTx pre-incubation (A3 W243F-YFP [2]; PTx 100 ng·mL−1 overnight, 3 μM FSK) | SPAP production in the absence of FSK (Gs coupling) (A3 W243F-YFP [2]; no FSK, with or without PTx) | Emax (A3 W243F-YFP [2]; read-out: Maximum response (% inhibition of 10 μM FSK), CRE-SPAP assay)
1 | 0.245 µM | 0.282 µM | 30 ± 6% | No inhibition | no significant decrease | no significant change | CCCCC#Cc1nc(NC)c2ncn([C@@H]3O[C@H](CO)[C@@H](O)[C@H]3O)c2n1 [HEMADO, 2-(1-hexynyl)-N-methyladenosine] | 105.1±11.0% | unable to stimulate internalization | – | – | –
2 | – | – | – | – | – | – | CCNC(=O)[C@H]1O[C@@H](n2cnc3c(N)ncnc32)[C@H](O)[C@@H]1O [NECA, 5-(N-ethylcarboxamido)adenosine] | 100% | rapid internalization | abolished | no increase in SPAP production | 34.8 ± 6.7%
